Data published in patent US10420731B1, “Method of synthesizing lignin-based nanocompositions” (KING SAUD UNIVERSITY, priority 2019, dated 2019).

Assays:
Caco-2 cell monolayer = details: in-vitro Caco-2 model system, previously known; cited from earlier work
[1] = reported; cited from earlier work
[2] = prior study; cited from earlier work
Caco-2 cells = experiment: MTT cell viability assay; format: cell-based, human; details: CUR 50 μM and 80 μM, 24 h, MTT (FIG. 9)
Experimental: Differentiated Caco-2 cells (ATCC, Rockville, Md., USA) were maintained in DMEM (4.5 g/L glucose) medium supplemented with 20% FBS (HyClone; Thermo Scientific, Waltham, Mass., USA), 1% non-essential amino acids, 1% L-glutamine, 1% streptomycin (100 μg/ml) and penicillin (100 IU/ml). The growth medium was changed every day in the first two weeks followed by three times a week.
Caco-2 cell line was transferred into 96-well plates, at a density of 5×10^4 cells per well. After cell adhesion, the culture media was removed and the cells were incubated with 250 μL of culture media containing a concentration range from 10 μM to 300 μM of CUR as free, CUR loaded LG NPs and equivalent unloaded LG NPs.
For free CUR, the samples were prepared from a stock solution in DMSO with appropriate dilutions to reach a maximum of 2% (v/v) of DMSO in each well. After a 24 h incubation period, the supernatant was removed and replaced by 100 μL of MTT solution (0.5 mg/ml) at (37 C°, 5% CO2) to allow MTT to be metabolized. […] Optical density was read at a wavelength of 570 nm using a microplate reader (ELX 800, Bio-Tek Instruments, Winooski, Vt., USA).
The induced cytotoxicity was calculated by comparing the optical density (OD) values against control wells. […] All measurements were performed in triplicate and the means±standard deviation (SD) were calculated.

COc1cc(/C=C/C(=O)CC(=O)/C=C/c2ccc(O)c(OC)c2)ccc1O [curcumin]
Papp (Caco-2 cell monolayer): < 3.18 ×10⁻⁶ cm/s | log P [1]: 3.7 | Oral bioavailability [2]: 1% | Cell viability (Caco-2 cells): below 50%
